Molecules are shown by their SMILES.

Seven compounds from US6410552B1, “Benzoether and related compositions and methods” (Ortho-McNeil Pharmaceutical, Inc., priority 2000, dated 2002) can be followed below.

The assay deals with T1, calcium channel (Oryctolagus cuniculus, UniProt P15381).
T1 construct: from tissue; host or cells: rabbit heart membranes
T1 sequence (P15381 whole entry, other chains not shown): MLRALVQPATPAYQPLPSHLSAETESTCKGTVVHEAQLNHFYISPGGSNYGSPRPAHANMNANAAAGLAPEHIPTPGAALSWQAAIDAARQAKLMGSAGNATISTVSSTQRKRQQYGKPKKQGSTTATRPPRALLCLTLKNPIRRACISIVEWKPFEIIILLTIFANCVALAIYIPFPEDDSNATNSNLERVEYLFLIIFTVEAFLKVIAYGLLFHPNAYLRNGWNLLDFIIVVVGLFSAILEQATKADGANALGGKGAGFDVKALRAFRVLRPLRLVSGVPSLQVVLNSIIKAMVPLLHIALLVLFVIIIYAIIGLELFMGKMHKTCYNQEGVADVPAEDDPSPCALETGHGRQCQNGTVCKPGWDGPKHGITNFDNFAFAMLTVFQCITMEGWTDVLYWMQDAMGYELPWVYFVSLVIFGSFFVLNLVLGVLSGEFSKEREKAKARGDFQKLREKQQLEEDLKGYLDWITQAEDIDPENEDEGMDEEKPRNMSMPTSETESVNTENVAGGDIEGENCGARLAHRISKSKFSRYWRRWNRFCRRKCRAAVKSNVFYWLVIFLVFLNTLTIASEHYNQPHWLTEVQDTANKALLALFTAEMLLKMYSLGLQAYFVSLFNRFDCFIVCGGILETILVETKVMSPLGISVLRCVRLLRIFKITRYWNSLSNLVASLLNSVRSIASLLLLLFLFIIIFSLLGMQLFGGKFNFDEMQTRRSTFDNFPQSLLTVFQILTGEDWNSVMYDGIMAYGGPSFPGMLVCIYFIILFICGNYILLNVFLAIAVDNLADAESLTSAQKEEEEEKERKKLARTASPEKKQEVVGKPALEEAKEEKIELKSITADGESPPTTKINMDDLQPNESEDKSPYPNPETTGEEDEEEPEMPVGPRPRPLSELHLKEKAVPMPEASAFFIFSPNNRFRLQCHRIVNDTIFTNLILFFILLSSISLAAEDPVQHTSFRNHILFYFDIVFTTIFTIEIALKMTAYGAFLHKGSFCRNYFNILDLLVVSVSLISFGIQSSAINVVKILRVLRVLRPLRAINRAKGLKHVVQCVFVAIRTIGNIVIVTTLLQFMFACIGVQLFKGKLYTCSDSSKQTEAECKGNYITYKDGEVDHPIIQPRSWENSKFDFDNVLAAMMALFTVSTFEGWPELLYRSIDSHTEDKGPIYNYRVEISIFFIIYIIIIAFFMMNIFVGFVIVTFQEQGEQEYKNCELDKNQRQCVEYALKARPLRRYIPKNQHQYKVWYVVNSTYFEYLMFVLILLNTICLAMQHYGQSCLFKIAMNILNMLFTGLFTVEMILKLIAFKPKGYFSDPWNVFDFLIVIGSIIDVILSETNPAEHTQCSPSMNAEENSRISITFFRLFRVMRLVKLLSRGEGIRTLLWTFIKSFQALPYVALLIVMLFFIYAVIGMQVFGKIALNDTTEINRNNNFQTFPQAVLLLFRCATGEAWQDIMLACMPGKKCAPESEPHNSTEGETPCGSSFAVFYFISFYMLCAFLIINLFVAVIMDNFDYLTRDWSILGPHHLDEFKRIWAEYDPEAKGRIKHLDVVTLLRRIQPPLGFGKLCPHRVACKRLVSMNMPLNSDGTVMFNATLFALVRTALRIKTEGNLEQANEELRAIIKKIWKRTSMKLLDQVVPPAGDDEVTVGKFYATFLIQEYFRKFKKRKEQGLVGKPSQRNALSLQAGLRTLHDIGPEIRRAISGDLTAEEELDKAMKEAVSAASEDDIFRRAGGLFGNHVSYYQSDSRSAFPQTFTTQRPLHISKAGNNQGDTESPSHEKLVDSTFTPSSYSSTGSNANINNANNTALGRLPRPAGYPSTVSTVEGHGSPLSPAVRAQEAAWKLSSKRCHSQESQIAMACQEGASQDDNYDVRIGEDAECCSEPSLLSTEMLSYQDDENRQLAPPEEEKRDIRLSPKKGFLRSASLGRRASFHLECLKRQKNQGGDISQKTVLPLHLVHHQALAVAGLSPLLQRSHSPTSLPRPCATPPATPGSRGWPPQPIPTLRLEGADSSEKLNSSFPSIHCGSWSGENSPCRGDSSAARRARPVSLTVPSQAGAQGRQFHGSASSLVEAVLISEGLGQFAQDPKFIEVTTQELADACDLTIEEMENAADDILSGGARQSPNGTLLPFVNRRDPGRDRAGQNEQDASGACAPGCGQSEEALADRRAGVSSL
T1 sequence (P13806 27-960 partner limits assumed, other chains not shown): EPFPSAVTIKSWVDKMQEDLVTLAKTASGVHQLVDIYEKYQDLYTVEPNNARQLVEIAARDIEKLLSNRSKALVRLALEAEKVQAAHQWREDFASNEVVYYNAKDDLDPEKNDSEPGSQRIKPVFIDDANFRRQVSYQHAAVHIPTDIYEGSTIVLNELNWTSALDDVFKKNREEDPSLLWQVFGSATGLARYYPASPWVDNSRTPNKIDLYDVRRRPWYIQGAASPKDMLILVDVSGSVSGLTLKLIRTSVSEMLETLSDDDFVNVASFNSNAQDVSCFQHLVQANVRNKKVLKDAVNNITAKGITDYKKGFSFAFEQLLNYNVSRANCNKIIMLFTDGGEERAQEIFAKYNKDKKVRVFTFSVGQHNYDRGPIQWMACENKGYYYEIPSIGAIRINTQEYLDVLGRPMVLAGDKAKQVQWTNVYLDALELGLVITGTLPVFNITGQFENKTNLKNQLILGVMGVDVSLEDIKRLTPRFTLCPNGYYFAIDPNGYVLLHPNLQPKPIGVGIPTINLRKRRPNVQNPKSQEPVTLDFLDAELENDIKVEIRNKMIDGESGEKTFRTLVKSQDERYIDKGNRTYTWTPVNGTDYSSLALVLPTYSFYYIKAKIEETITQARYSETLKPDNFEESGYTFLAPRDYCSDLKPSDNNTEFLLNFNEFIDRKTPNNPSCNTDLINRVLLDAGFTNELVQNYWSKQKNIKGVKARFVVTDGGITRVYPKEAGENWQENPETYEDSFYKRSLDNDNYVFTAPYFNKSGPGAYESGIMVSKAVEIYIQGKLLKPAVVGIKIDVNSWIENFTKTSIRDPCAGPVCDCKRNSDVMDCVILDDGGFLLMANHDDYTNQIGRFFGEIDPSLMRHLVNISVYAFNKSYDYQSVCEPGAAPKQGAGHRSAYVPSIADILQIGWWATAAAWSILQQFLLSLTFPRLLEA
T1 sequence (P13806 961-1106 partner limits assumed, other chains not shown): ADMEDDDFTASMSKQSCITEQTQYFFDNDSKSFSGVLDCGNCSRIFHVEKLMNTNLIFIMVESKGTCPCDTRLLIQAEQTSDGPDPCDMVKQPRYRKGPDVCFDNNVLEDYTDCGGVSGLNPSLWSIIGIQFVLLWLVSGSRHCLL
Put plainly: Assay for Inhibition of Nitrendipine Binding (3H-nitrendipine, heart membranes). To be noted: displacement of 3H-nitrendipine (0.05-0.50 nM) from rabbit heart membranes, 90 minutes at 4° C. The method, then:
Female, New Zealand white rabbits (1-2 kg) are sacrificed by cervical dislocation, and the heart is immediately removed, cleaned and chopped into small pieces. The tissue is homogenized in 5×times volume of 0.05M Hepes buffer, pH 7.4. The homogenate is centrifuged at 4000 g for 10 minutes, and the supernatant is re-centrifuged at 42,000×g for 90 minutes. The resulting membrane pellet is resuspended (0.7 ml/g weight) in 0.05M Hepes, pH 7.4 and stored at […] until used. Each tube of the binding assay contains ^3H-nitrendipine (0.05-0.50 nM), buffer, membranes (0.10 ml), and test compound in a total volume of 1.0 ml. After 90 minutes at 4° C., the bound nitrendipine is separated from the unbound by filtration on Whatman GF/C filters. After rinsing, the filters are dried and counted in a liquid scintillation counter.
Non-specific binding of ^3H-nitrendipine (that amount bound in the presence of excess unlabelled nitrendipine) is subtracted from the total bound to obtain specifically bound radiolabeled nitrendipine. The amount of specifically bound nitrendipine in the presence of a test compound is compared to that amount bound in the absence of a compound. A percent displacement (or inhibition) can then be calculated.
For orientation: In a radioligand displacement assay an active substance lowers the binding of a labelled ligand.
As for `COC(=O)C1=C(C)NC2=C(C1c1ccccc1Cl)S(=O)(=O)c1ccccc1OC2` (stereo not shown) [Compound 1, 1H-[1,5]Benzoxathiepino[3,4-b]pyridine-3-carboxylic acid, 4-(2-chlorophenyl)-4,11-dihydro-2-methyl-, methyl ester, 5,5-dioxide], the IC50 (as a rule, the concentration at which inhibition is half-maximal) is 61 nM. Regarding `CC1=C(C(=O)OCCN(C)Cc2ccccc2)C(c2ccccc2Cl)C2=C(COc3ccccc3S2(=O)=O)N1` (stereo not shown) [Compound 2, 1H-[1,5]Benzoxathiepino[3,4-b]pyridine-3-carboxylic acid, 4-(2-chlorophenyl)-4,11-dihydro-2-methyl-, 2-[methyl(phenylmethyl)amino]ethyl ester, 5,5-dioxide], the IC50 came out at 59 nM.

With `COC(=O)C1=C(C)NC2=C(C1c1cccc([N+](=O)[O-])c1)S(=O)(=O)c1ccccc1OC2` (stereo not shown) [Compound 3, 1H-[1,5]Benzoxathiepino[3,4-b]pyridine-3-carboxylic acid, 4,11-dihydro-2-methyl-4-(3-nitrophenyl)-, methyl ester, 5,5-dioxide], the IC50 came out at 33 nM. In the case of `CC1=C(C(=O)OCCN(C)Cc2ccccc2)C(c2cccc([N+](=O)[O-])c2)C2=C(COc3ccccc3S2(=O)=O)N1` (stereo not shown) [Compound 4, 1H-[1,5]Benzoxathiepino[3,4-b]pyridine-3-carboxylic acid, 4,11-dihydro-2-methyl-4-(3-nitrophenyl)-, 2-[methyl(phenylmethyl)amino]ethyl ester, 5,5-dioxide], the IC50 is 45 nM.

Regarding `CC1=C(C(=O)OCCN(C)Cc2ccccc2)C(c2cccc(Cl)c2)C2=C(COc3ccccc3S2(=O)=O)N1` (stereo not shown) [Compound 5, 1H-[1,5]Benzoxathiepino[3,4-b]pyridine-3-carboxylic acid, 4-(3-chlorophenyl)-4,11-dihydro-2-methyl-, 2-[methyl(phenylmethyl)amino]ethyl ester, 5,5-dioxide], the 50% inhibitory concentration (IC50) was 109 nM. Consider `CC1=C(C(=O)OCCN(C)Cc2ccccc2)C(c2cccc(Cl)c2Cl)C2=C(COc3ccccc3S2(=O)=O)N1` (stereo not shown) [Compound 6, 1H-[1,5]Benzoxathiepino[3,4-b]pyridine-3-carboxylic acid, 4-(2,3-dichlorophenyl)4,11-dihydro-2-methyl-, 2-[methyl(phenylmethyl)amino]ethyl ester, 5,5-dioxide], for which the IC50 amounted to 21 nM. With `CC1=C(C(=O)OCCN(C)Cc2ccccc2)C(c2c(F)cccc2Cl)C2=C(COc3ccccc3S2(=O)=O)N1` (stereo not shown) [Compound 7, 1H-[1,5]Benzoxathiepino[3,4-b]pyridine-3-carboxylic acid, 4-(2-chloro-6-fluorophenyl)-4,11-dihydro-2-methyl-, 2-[methyl(phenylmethyl)amino]ethyl ester, 5,5-dioxide], the IC50 came to 47 nM.
